Measurements: patent US4535075A, “Dithiolane derivative, process for producing the same and use thereof” (Nihon Nohyaku Co., Ltd., priority 1982, dated 1985)

System: liver damage induced by carbon tetrachloride
Test: Protective (Controlling) effect on liver damage induced by carbon tetrachloride
Assay type: in vivo, mice (dd strain)
Conditions: for p-GPT: CCl4 alone >2,100; for Liver Damage Index: average of 5 mice, CCl4 alone 5.0
Text: Protective (Controlling) Effect on liver damage induced by carbon tetrachloride.
Carbon tetrachloride administration induces centrilobular necrosis of the liver associated with loss of diphosphopyridine nucleotide, hepatic glycogen, coenzyme A and increase in neutral fat. Release of several enzymes from the hepatocytes, and increases of enzyme activities in the plasma are recognized as the result of the damage of the liver.
A suitable means for evaluating the degree induced by carbon tetrachloride or the degree of protection afforded by drugs is to study the plasma glutamic-pyruvic transaminase (p-GPT) activity. […]
After 6 hours, carbon tetrachloride was administered orally 0.05 ml/kg.
Animals were killed 24 hours after carbon tetrachloride administration, and the liver was grossly observed.
The plasma was obtained by centrifugation. Activity of p-GPT were determined by the method of Reitman and Frankel and expressed in Karmen units.
Score for liver damage index was as follows:
1 Each figure indicated average of 5 mice.

[1] = 250 mg/kg p.o., CCl4 0.05 ml/kg after 6 h, 24 h
[2] = 250 mg/kg p.o., CCl4 0.05 ml/kg after 6 h, 24 h, 0 Normal, 2 Slightly recognized, 4 Clearly observable damage, 6 Heavy damage

Row | Structure (SMILES) | p-GPT [1] [Karmen units] | Liver Damage Index [2] | Liver Damage Index (administered at 100 mg/kg p.o., scale 0 Normal to 6 Heavy damage) | p-GPT (administered at 100 mg/kg p.o.) [Karmen units]
1 | CCCOC(=O)C(C(C)=O)=C1SC(OC(C)=O)C(OC(C)=O)S1 (stereo not shown) [Compound 61] | 1260 | 0.8 | – | –
2 | CCCOC(=O)C(C(=O)OCCC)=C1SC(OC(=O)N(C)C)C(OC(=O)N(C)C)S1 (stereo not shown) [Compound 64, di-n-propyl 4,5-bis (N,N-dimethylcarbamoyloxy)-1,3-dithiolane-2-ylidenemalonate] | – | 3.4 | – | –
3 | CCCOC(=O)C(C(=O)OCCC)=C1SC(OC(=O)CCC(=O)O)C(OC(=O)CCC(=O)O)S1 (stereo not shown) [Compound 68] | – | 2.0 | – | –
4 | CCOC(=O)C(C(=O)CC)=C1SC(O)C(O)S1 (stereo not shown) [Compound 49] | 23 | 0.4 | – | –
5 | CCCOC(=O)C(C#N)=C1SC(O)C(O)S1 (stereo not shown) [Compound 26] | 24 | 0.0 | – | –
6 | CCCCOC(=O)C(C(=O)OCCCC)=C1SC2OC(=O)OC2S1 (stereo not shown) [Compound 76] | 84.8 | 0.6 | – | –
7 | CCCCCOC(=O)C(C(C)=O)=C1SC2OC(=O)OC2S1 (stereo not shown) [Compound 95] | 28.2 | 0.8 | – | –
8 | CC(C)COC(=O)C(C(=O)OCC(C)C)=C1SC2OC(=O)OC2S1 (stereo not shown) [Compound 77] | 21.2 | 0.2 | – | –
9 | CCOC(=O)C(C(=O)CC(C)C)=C1SC(O)C(O)S1 (stereo not shown) [Compound 53] | 94 | 0.8 | – | –
10 | CC(=O)OC1SC(=C(C(=O)OC(C)C)C(=O)OC(C)C)SC1OC(C)=O (stereo not shown) [Compound 58] | 42.0 | 1.0 | – | –
11 | CCCCCCC(=O)C(C(=O)OCC)=C1SC2OC(=O)OC2S1 (stereo not shown) [Compound 105] | 107.4 | 1.6 | – | –
12 | CC(=O)OC1SC(=C(C(=O)OC(C)C)C(=O)OC(C)C)SC1O (stereo not shown) [Compound 57, diisopropyl 4-hydroxy-5-methyl carbonyloxy-1,3-dithiolan-2-ylidenemalonate] | 262.0 | 1.0 | – | –
13 | CCCOC(=O)C(C(=O)OCCC)=C1SC(OC(=O)OCC)C(OC(=O)OCC)S1 (stereo not shown) [Compound 66] | 53.8 | 0.2 | – | –
14 | CC(C)COC(=O)C(C(=O)OC(C)C)=C1SC2OC(=O)OC2S1 (stereo not shown) [Compound 86] | > 436.4 | 0.6 | – | –
15 | CCCOC(=O)C(C(=O)OCCC)=C1SC2OC(=S)OC2S1 (stereo not shown) [Compound 108] | 31.0 | 0 | – | –
16 | CCOC(=O)C(C(=O)Cc1ccccc1)=C1SC2OC(=O)OC2S1 (stereo not shown) [Compound 106] | 602.2 | 1.0 | – | –
17 | CCCOC(=O)C(C(=O)OCCC)=C1SC(OC(=O)C(C)(C)C)C(OC(=O)C(C)(C)C)S1 (stereo not shown) [Compound 62] | 223.2 | 1.2 | – | –
18 | CCCCCOC(=O)C(C#N)=C1SC(O)C(O)S1 (stereo not shown) [Compound 30] | 116 | 0.6 | – | –
19 | CCCCCCOC(=O)C(C#N)=C1SC(O)C(O)S1 (stereo not shown) [Compound 33] | 93 | 0.8 | – | –

Row | Structure (SMILES) | p-GPT [1] [Karmen units] | Liver Damage Index [2] | Liver Damage Index (administered at 100 mg/kg p.o., scale 0 Normal to 6 Heavy damage) | p-GPT (administered at 100 mg/kg p.o.) [Karmen units]
20 | CC(=O)C(C(=O)OC(C)C)=C1SC2OC(=O)OC2S1 (stereo not shown) [Compound 89] | 26.3 | 0.4 | – | –
21 | CCC(C)OC(=O)C(C(=O)OC(C)CC)=C1SC(OC(C)=O)C(OC(C)=O)S1 (stereo not shown) [Compound 60] | 203.0 | 0 | – | –
22 | CCOC(=O)C(C(=O)CC(C)C)=C1SC2OC(=O)OC2S1 (stereo not shown) [Compound 104] | 17.6 | 0 | – | –
23 | O=C1OC2SC(=C(C(=O)OC3CCCCC3)C(=O)OC3CCCCC3)SC2O1 (stereo not shown) [Compound 82] | 159.7 | 0.4 | – | –
24 | C#CCOC(=O)C(C(=O)OCC#C)=C1SC2OC(=S)OC2S1 (stereo not shown) [Compound 113] | 13.3 | 0.6 | – | –
25 | CCOC(=O)C(C(=O)C(C)C)=C1SC2OC(=O)OC2S1 (stereo not shown) [Compound 102] | 48.5 | 1.2 | – | –
26 | CC(C)CCOC(=O)C(C(=O)OCCC(C)C)=C1SC2OC(=O)OC2S1 (stereo not shown) [Compound 81] | 108.1 | 1.2 | – | –
27 | C=CCOC(=O)C(C(=O)OCC=C)=C1SC2OC(=S)OC2S1 (stereo not shown) [Compound 112, 7-bis(allyloxycarbonyl)methylene-3-thioxo-2,4-dioxa-6,8-dithiabicyclo[3,3,0]octane] | 20.2 | 0.6 | – | –
28 | CC(=O)C(C(=O)OCC(C)C)=C1SC2OC(=O)OC2S1 (stereo not shown) [Compound 92] | 29.4 | 0.8 | – | –
29 | CC(C)COC(=O)C(C(=O)OCC(C)C)=C1SC2OC(=S)OC2S1 (stereo not shown) [Compound 110] | 554.7 | 1.2 | – | –
30 | O=C1OC2SC(=C(C(=O)OCc3ccccc3)C(=O)OCc3ccccc3)SC2O1 (stereo not shown) [Compound 83] | 105.5 | 1.2 | – | –
31 | CC(=O)C(C(=O)OCCC(C)C)=C1SC2OC(=O)OC2S1 (stereo not shown) [Compound 96] | 15.4 | 0 | – | –
32 | CCCCCOC(=O)C(C(=O)OCCCCC)=C1SC2OC(=O)OC2S1 (stereo not shown) [Compound 80] | 71.1 | 0.4 | – | –
33 | COC(=O)C(C(=O)OC)=C1SC(OC(=O)CCC(=O)O)C(OC(=O)CCC(=O)O)S1 (stereo not shown) [Compound 70] | 121.0 | 1.2 | – | –
34 | CCCOC(=O)C(C(C)=O)=C1SC(OC(=O)N(C)C)C(OC(=O)N(C)C)S1 (stereo not shown) [Compound 65] | 498.7 | 1.6 | – | –
35 | CCOC(=O)C(C(=O)C(C)C)=C1SC(O)C(O)S1 (stereo not shown) [Compound 51] | 172 | 1.6 | – | –
36 | CCCC(=O)C(C(=O)OCC)=C1SC2OC(=O)OC2S1 (stereo not shown) [Compound 101] | 20.0 | 0.2 | – | –
37 | CCCCCCC(=O)C(C(=O)OCC)=C1SC(O)C(O)S1 (stereo not shown) [Compound 54] | 188 | 2.6 | – | –
38 | CC(=O)C(C(=O)OC(C)(C)C)=C1SC2OC(=O)OC2S1 (stereo not shown) [Compound 94, 7-(methylcarbonyl-tert-butoxycarbonyl)methylene-3-oxo-2,4-dioxa-6,8-dithiabicyclo[3,3,0]octane] | 26.5 | 0.8 | – | –

Row | Structure (SMILES) | p-GPT [1] [Karmen units] | Liver Damage Index [2] | Liver Damage Index (administered at 100 mg/kg p.o., scale 0 Normal to 6 Heavy damage) | p-GPT (administered at 100 mg/kg p.o.) [Karmen units]
39 | CCCCOC(=O)C(C(C)=O)=C1SC2OC(=O)OC2S1 (stereo not shown) [Compound 91] | 27.9 | 0.8 | – | –
40 | C#CCOC(=O)C(C(=O)OCC#C)=C1SC2OC(=O)OC2S1 (stereo not shown) [Compound 85] | 30.3 | 0 | – | –
41 | CCCOC(=O)C(C(=O)OCCC)=C1SC2OC(=O)OC2S1 (stereo not shown) [Compound 74] | 38.8 | 0 | – | –
42 | C=CCOC(=O)C(C(=O)OCC=C)=C1SC2OC(=O)OC2S1 (stereo not shown) [Compound 84] | 13.9 | 0 | – | –
43 | C#CCOC(=O)C(C(C)=O)=C1SC2OC(=O)OC2S1 (stereo not shown) [Compound 99] | 18.4 | 0 | – | –
44 | CC(C)COC(=O)C(C#N)=C1SC(O)C(O)S1 (stereo not shown) [Compound 29] | 175 | 1.0 | – | –
45 | COC(=O)C(C(C)=O)=C1SC2OC(=O)OC2S1 (stereo not shown) [Compound 87] | 45.7 | 0.6 | – | –
46 | CC(C)OC(=O)C(C#N)=C1SC(O)C(O)S1 (stereo not shown) [Compound 27, isopropyl 4,5-dihydroxy-1,3-dithiolan-2-ylidenecyanoacetate] | 23 | 0.2 | – | –
47 | CCCOC(=O)C(C(=O)OCCC)=C1SC(OC(C)=O)C(OC(C)=O)S1 (stereo not shown) [Compound 59] | 40.9 | 0.4 | – | –
48 | CCCOC(=O)C(C(C)=O)=C1SC(OC(=O)OCC)C(OC(=O)OCC)S1 (stereo not shown) [Compound 67] | 127.7 | 0.8 | – | –
49 | CCOC(=O)C(C(=O)c1ccccc1)=C1SC(O)C(O)S1 (stereo not shown) [Compound 56] | – | – | 4.0 | > 1418
50 | CC(C)OC(=O)C(C(=O)OC(C)C)=C1SC2OC(=O)OC2S1 (stereo not shown) [Compound 75] | 19.9 | 0.2 | – | –
51 | CCOC(=O)C(C(C)=O)=C1SC2OC(=O)OC2S1 (stereo not shown) [Compound 88] | 211.6 | 1.4 | – | –
52 | CC(C)CCOC(=O)C(C#N)=C1SC(O)C(O)S1 (stereo not shown) [Compound 31] | 105 | 0.6 | – | –
53 | CC(C)(C)OC(=O)C(C(=O)OC(C)(C)C)=C1SC2OC(=O)OC2S1 (stereo not shown) [Compound 79] | 66.0 | 0.8 | – | –
54 | COC(=O)C(C(=O)OC)=C1SC2OC(=O)OC2S1 (stereo not shown) [Compound 72] | 32.3 | 0 | – | –
55 | CCCCC(=O)C(C(=O)OCC)=C1SC2OC(=O)OC2S1 (stereo not shown) [Compound 103] | 14.7 | 0 | – | –
56 | CCOC(=O)C(C(=O)OCC)=C1SC2OC(=S)OC2S1 (stereo not shown) [Compound 107] | 42.6 | 0.6 | – | –
57 | CCOC(=O)C(C(=O)OCC)=C1SC2OC(=O)OC2S1 (stereo not shown) [Compound 73] | 75.1 | 0.8 | – | –
